The values that follow come from paper PMC8986778, “Citrullination of glucokinase is linked to autoimmune diabetes” (Nature Communications, 2022).

Usually IC50 stands for the concentration needed to halve the response being measured.

Each structure is given as a SMILES string. Read-outs that look alike come from different tables or passages of the source. Non-standard residues stand in square brackets, D forms with d. Residues, ends and D or L forms follow the SMILES beside them. Cit = NC(=O)NCCC[C@H](N)C(=O)O Some results are limits rather than exact numbers.

This test concerns the target T1, DR0401 protein (Homo sapiens, UniProt P01903+P01911, A100K/A169T/F76Y/I96L/K127E/L162R/M171V/N62H/P40V/Q125Y/R42H/S133A/S149N/S66Y/V115G/V209L/W38E).
T1 construct: made in house; host or cells: insect cell cultures
Kind of test: DR0401 peptide binding competition assay.

The mark [1] stands for this setting: Supplementary Table 2, competition with biotin-HA306-318 0.02 μM, read-out: IC50 (Binding of Predicted Glucokinase Peptides to DR04:01).
Setting [2] is: Table 1, competition with biotinylated HA306-318 reference peptide at 0.02 μM in DR0401-coated wells, europium-streptavidin time resolved fluorescence, concentration that displaces half of the reference peptide, read-out: IC50 (binding to DR0401).
[3] abbreviates: Supplementary Table 3, competition with biotin-HA306-318 0.02 μM, representative values from two replicate experiments, read-out: IC50 (Effect of Citrulline or Arg Substitution).

With `CSCC[C@H](NC(=O)[C@H](CCCCN)NC(=O)[C@@H](NC(=O)[C@H](CO)NC(=O)[C@H](C)NC(=O)[C@H](CCC(=O)O)NC(=O)[C@H](CCC(=O)O)NC(=O)[C@H](Cc1c[nH]cn1)NC(=O)[C@@H](NC(=O)[C@H](CCC(=O)O)NC(=O)[C@H](CC(C)C)NC(=O)[C@H](CCCNC(N)=O)NC(=O)[C@H](CC(C)C)NC(=O)CN)[C@@H](C)O)C(C)C)C(=O)N[C@@H](CC(C)C)C(=O)O` [GK 44-58] (H-GL[Cit]LETHEEASVKML-OH; N-terminus and C-terminus assumed), the half-inhibitory concentration (IC50) under setting [1] was greater than 50 µM.

As for `CSCC[C@H](NC(=O)[C@H](CCCCN)NC(=O)[C@@H](NC(=O)[C@@H](N)CO)C(C)C)C(=O)N[C@@H](CC(C)C)C(=O)N1CCC[C@H]1C(=O)N[C@H](C(=O)N[C@@H](Cc1ccc(O)cc1)C(=O)N[C@H](C(=O)N[C@@H](CCCNC(N)=O)C(=O)N[C@@H](CO)C(=O)N[C@H](C(=O)N1CCC[C@H]1C(=O)N[C@@H](CCC(=O)O)C(=O)NCC(=O)O)[C@@H](C)O)C(C)C)[C@@H](C)O` [GK 54-68] (H-SVKMLPTYV[Cit]STPEG-OH; N-terminus and C-terminus assumed), the IC50 under setting [1] was greater than 50 µM.

`CC(C)C[C@H](N)C(=O)N1CCC[C@H]1C(=O)N[C@H](C(=O)N[C@@H](Cc1ccc(O)cc1)C(=O)N[C@H](C(=O)N[C@@H](CCCNC(N)=O)C(=O)N[C@@H](CO)C(=O)N[C@H](C(=O)N1CCC[C@H]1C(=O)N[C@@H](CCC(=O)O)C(=O)NCC(=O)N[C@@H](CO)C(=O)N[C@@H](CCC(=O)O)C(=O)N[C@H](C(=O)NCC(=O)O)C(C)C)[C@@H](C)O)C(C)C)[C@@H](C)O` [GK 58-72] (H-LPTYV[Cit]STPEGSEVG-OH): the IC50 under setting [1] is 30.9 µM.

`CSCC[C@H](NC(=O)[C@@H](NC(=O)[C@H](CCCNC(=N)N)NC(=O)[C@H](Cc1ccccc1)NC(=O)[C@H](CC(N)=O)NC(=O)[C@@H](NC(=O)CN)[C@@H](C)O)C(C)C)C(=O)N[C@@H](CC(C)C)C(=O)N[C@H](C(=O)N[C@@H](CCCCN)C(=O)N[C@H](C(=O)NCC(=O)N[C@@H](CCC(=O)O)C(=O)NCC(=O)N[C@@H](CCC(=O)O)C(=O)O)C(C)C)C(C)C` [GK 81-95] (H-GTNFRVMLVKVGEGE-OH): the concentration for half-maximal inhibition (IC50) under setting [1] was 15.3 µM.

As to `CC[C@H](C)[C@H](NC(=O)[C@H](CS)NC(=O)[C@H](CCC(=O)O)NC(=O)[C@H](CO)NC(=O)[C@@H](NC(=O)[C@H](Cc1ccc(O)cc1)NC(=O)[C@H](CC(=O)O)NC(=O)[C@H](Cc1ccccc1)NC(=O)[C@H](CC(C)C)NC(=O)[C@H](CCSC)NC(=O)[C@@H](N)CCC(=O)O)[C@@H](C)CC)C(=O)N[C@@H](CO)C(=O)N[C@@H](CC(=O)O)C(=O)N[C@@H](Cc1ccccc1)C(=O)N[C@@H](CC(C)C)C(=O)O` [GK 120-134] (H-EMLFDYISECISDFL-OH), the IC50 under setting [1] was 40.1 µM.

Take `CSCC[C@H](NC(=O)[C@H](C)NC(=O)[C@@H](NC(=O)[C@@H](NC(=O)[C@H](CC(=O)O)NC(=O)[C@H](CCSC)NC(=O)[C@H](CCC(=O)O)NC(=O)[C@H](Cc1ccccc1)NC(=O)[C@H](CC(=O)O)NC(=O)CNC(=O)[C@@H](N)CCCNC(=N)N)C(C)C)C(C)C)C(=O)N[C@H](C(=O)N[C@@H](CC(N)=O)C(=O)N[C@@H](CC(=O)O)C(=O)N[C@H](C(=O)O)[C@@H](C)O)C(C)C` [GK 192] (H-RGDFEMDVVAMVNDT-OH): the IC50 under setting [2] turned out to be 0.35 µM.

For the molecule `CC[C@H](C)[C@H](NC(=O)[C@H](CCSC)NC(=O)[C@@H](NC(=O)[C@H](C)NC(=O)[C@@H](NC(=O)[C@@H](NC(=O)[C@H](CC(=O)O)NC(=O)[C@H](CC(N)=O)NC(=O)[C@@H](NC(=O)[C@H](CCSC)NC(=O)[C@H](C)NC(=O)[C@@H](NC(=O)[C@@H](N)C(C)C)C(C)C)C(C)C)[C@@H](C)O)C(C)C)[C@@H](C)O)C(=O)N[C@@H](CO)C(=O)N[C@@H](CS)C(=O)N[C@@H](Cc1ccc(O)cc1)C(=O)O` [GK 199] (H-VVAMVNDTVATMISCY-OH), the IC50 under setting [2] is 2.5 µM.

For the molecule `CSCC[C@H](NC(=O)[C@H](Cc1ccc(O)cc1)NC(=O)[C@H](CS)NC(=O)[C@H](C)NC(=O)[C@@H](N)CC(N)=O)C(=O)N[C@@H](CCC(=O)O)C(=O)N[C@@H](CCC(=O)O)C(=O)N[C@@H](CCSC)C(=O)N[C@@H](CCC(N)=O)C(=O)N[C@@H](CC(N)=O)C(=O)N[C@H](C(=O)N[C@@H](CCC(=O)O)C(=O)N[C@@H](CC(C)C)C(=O)N[C@H](C(=O)N[C@@H](CCC(=O)O)C(=O)O)C(C)C)C(C)C` [GK 231-245] (H-NACYMEEMQNVELVE-OH), the IC50 under setting [1] is 0.03 µM.

Regarding `CC(C)C[C@H](NC(=O)[C@H](CC(C)C)NC(=O)[C@H](Cc1ccccc1)NC(=O)[C@H](CCC(=O)O)NC(=O)[C@H](CC(=O)O)NC(=O)[C@@H](N)CC(C)C)C(=O)N[C@@H](CCC(=O)O)C(=O)N[C@@H](Cc1ccc(O)cc1)C(=O)N[C@@H](CC(=O)O)C(=O)N[C@@H](CCCNC(N)=O)C(=O)N[C@@H](CC(C)C)C(=O)N[C@H](C(=O)N[C@@H](CC(=O)O)C(=O)N[C@@H](CCC(=O)O)C(=O)N[C@@H](CO)C(=O)O)C(C)C` [GK 266 Cit] (H-LDEFLLEYD[Cit]LVDES-OH), the concentration for half-maximal inhibition (IC50) under setting [3] was 9.5 µM.

As to `CC(C)C[C@H](NC(=O)[C@H](CC(C)C)NC(=O)[C@H](Cc1ccccc1)NC(=O)[C@H](CCC(=O)O)NC(=O)[C@H](CC(=O)O)NC(=O)[C@@H](N)CC(C)C)C(=O)N[C@@H](CCC(=O)O)C(=O)N[C@@H](Cc1ccc(O)cc1)C(=O)N[C@@H](CC(=O)O)C(=O)N[C@@H](CCCNC(=N)N)C(=O)N[C@@H](CC(C)C)C(=O)N[C@H](C(=O)N[C@@H](CC(=O)O)C(=O)N[C@@H](CCC(=O)O)C(=O)N[C@@H](CO)C(=O)O)C(C)C` [GK 266] (H-LDEFLLEYDRLVDES-OH), the IC50 under setting [2] is 5.6 µM.

On to `CC(C)C[C@H](NC(=O)[C@H](CCCNC(N)=O)NC(=O)[C@H](CC(=O)O)NC(=O)[C@H](Cc1ccc(O)cc1)NC(=O)[C@H](CCC(=O)O)NC(=O)[C@H](CC(C)C)NC(=O)[C@@H](N)CC(C)C)C(=O)N[C@H](C(=O)N[C@@H](CC(=O)O)C(=O)N[C@@H](CCC(=O)O)C(=O)N[C@@H](CO)C(=O)N[C@@H](CO)C(=O)N[C@@H](C)C(=O)N[C@@H](CC(N)=O)C(=O)N1CCC[C@H]1C(=O)O)C(C)C` [GK 270 Cit] (H-LLEYD[Cit]LVDESSANP-OH), for which, under setting [3], the IC50 turned out to be 8.6 µM.

On to `CC(C)C[C@H](NC(=O)[C@H](CCCNC(=N)N)NC(=O)[C@H](CC(=O)O)NC(=O)[C@H](Cc1ccc(O)cc1)NC(=O)[C@H](CCC(=O)O)NC(=O)[C@H](CC(C)C)NC(=O)[C@@H](N)CC(C)C)C(=O)N[C@H](C(=O)N[C@@H](CC(=O)O)C(=O)N[C@@H](CCC(=O)O)C(=O)N[C@@H](CO)C(=O)N[C@@H](CO)C(=O)N[C@@H](C)C(=O)N[C@@H](CC(N)=O)C(=O)N1CCC[C@H]1C(=O)O)C(C)C` [GK 270] (H-LLEYDRLVDESSANP-OH), for which the IC50 under setting [2] was found to be 2 µM.

In the case of `CSCC[C@H](NC(=O)[C@H](Cc1ccc(O)cc1)NC(=O)[C@H](CCCCN)NC(=O)CNC(=O)CN)C(=O)NCC(=O)N[C@@H](CCC(=O)O)C(=O)N[C@@H](CC(C)C)C(=O)N[C@H](C(=O)N[C@@H](CCCNC(N)=O)C(=O)N[C@@H](CC(C)C)C(=O)N[C@H](C(=O)N[C@@H](CC(C)C)C(=O)N[C@@H](CC(C)C)C(=O)N[C@@H](CCCNC(=N)N)C(=O)O)C(C)C)C(C)C` [GK 294-308] (H-GGKYMGELV[Cit]LVLLR-OH), under setting [1], the IC50 was 4.3 µM.

Consider `CC(C)C[C@H](NC(=O)[C@H](CCC(N)=O)NC(=O)[C@H](CCC(=O)O)NC(=O)[C@H](CO)NC(=O)[C@H](C)NC(=O)[C@H](CCC(=O)O)NC(=O)CNC(=O)[C@H](Cc1c[nH]cn1)NC(=O)[C@H](Cc1ccccc1)NC(=O)[C@H](CC(C)C)NC(=O)[C@H](CC(C)C)NC(=O)[C@H](CC(N)=O)NC(=O)[C@H](CCC(=O)O)NC(=O)[C@@H](N)CC(=O)O)C(=O)O` [GK 311-324] (H-DENLLFHGEASEQL-OH; N-terminus and C-terminus assumed), for which the concentration for half-maximal inhibition (IC50) under setting [1] was greater than 50 µM.

Regarding `CC(C)C[C@H](NC(=O)[C@H](CCC(N)=O)NC(=O)[C@H](CCC(=O)O)NC(=O)[C@H](CO)NC(=O)[C@H](C)NC(=O)[C@H](CCC(=O)O)NC(=O)CNC(=O)[C@H](Cc1c[nH]cn1)NC(=O)[C@H](Cc1ccccc1)NC(=O)[C@H](CC(C)C)NC(=O)[C@H](CC(C)C)NC(=O)[C@@H](N)CC(N)=O)C(=O)N[C@@H](CCCNC(N)=O)C(=O)N[C@H](C(=O)N[C@@H](CCCNC(=N)N)C(=O)O)[C@@H](C)O` [GK 313-327] (H-NLLFHGEASEQL[Cit]TR-OH; N-terminus and C-terminus assumed), under setting [1], the IC50 is greater than 50 µM.

In the case of `CC(C)[C@H](NC(=O)[C@H](CCC(N)=O)NC(=O)[C@H](CO)NC(=O)[C@@H](NC(=O)[C@H](Cc1ccccc1)NC(=O)[C@H](CCCNC(N)=O)NC(=O)[C@@H](NC(=O)[C@H](CCC(=O)O)NC(=O)[C@H](Cc1ccccc1)NC(=O)[C@H](C)NC(=O)CNC(=O)[C@@H](N)CCCNC(=N)N)[C@@H](C)O)C(C)C)C(=O)N[C@@H](CCC(=O)O)C(=O)N[C@@H](CO)C(=O)N[C@@H](CC(=O)O)C(=O)O` [GK 327-341] (H-RGAFET[Cit]FVSQVESD-OH; N-terminus and C-terminus assumed), under setting [1], the IC50 is greater than 50 µM.

Turning to `CC(C)[C@H](NC(=O)[C@H](CCC(N)=O)NC(=O)[C@H](CO)NC(=O)[C@@H](NC(=O)[C@H](Cc1ccccc1)NC(=O)[C@H](CCCNC(N)=O)NC(=O)[C@@H](NC(=O)[C@@H](N)CCC(=O)O)[C@@H](C)O)C(C)C)C(=O)N[C@@H](CCC(=O)O)C(=O)N[C@@H](CO)C(=O)N[C@@H](CC(=O)O)C(=O)N[C@H](C(=O)NCC(=O)N[C@@H](CC(=O)O)C(=O)O)[C@@H](C)O` [GK 331-344] (H-ET[Cit]FVSQVESDTGD-OH; N-terminus and C-terminus assumed), the IC50 under setting [1] was greater than 50 µM.
